# Measured values published in patent US12201611B2, “Composition comprising high purity pyrrole derivative and method for preparation thereof” (Zydus Lifesciences Limited, priority 2020, dated 2025).
# Key:
# [1] = Stability data at 25° C. ± 2° C. and 60% ± 5% relative humidity (six months); format: physicochemical; details: 60% ± 5% RH
# Protocol: (§1) As used herein, the term “prolonged storage” refers to storage for up to 6 months and different stability conditions refers to storage at 25° C. temperature and 60% relative humidity; or at 40° C. temperature and 75% relative humidity.
# (§2) In another general aspect, there is provided a stable composition of Saroglitazar magnesium, wherein the composition contains Saroglitazar magnesium having purity of about 99.0% or more, by weight, by area percentage of HPLC, and one or more of the aldehyde compound of Formula (II), the diketo oxirane compound of Formula (III), the hydroxy methyl compound of Formula (IV), or the dimer compound of Formula (V) in an amount of about 0.15%, or less, by weight, relative to saroglitazar magnesium, on prolonged storage and under different stability conditions i.e. 40° C.±2° C. temperature and 75%±5% relative humidity and at 25° C.±2° C. temperature and 60±5% relative humidity as outlined by the six months' stability data as shown in Table-2 and 3.
# (§3) The purity of the samples of Saroglitazar or salts thereof including magnesium and SMBA salt is measured by area percentage of HPLC using following conditions:
# (§4) Equipment: Shimadzu LC2020CHT HPLC system or equivalent
# (§5) Column: YMC-Pack Pro C18 ([…]×4.0 mm, 3 μm)
# (§6) Detector: UV-VIS detector or PDA detector
# (§7) Column Oven Temp.: 25° C.
# [2] = Stability data at 40° C. ± 2° C. and 75% ± 5% relative humidity (six months); format: physicochemical; details: 75% ± 5% RH
# Protocol: as §1, §2, §3, §4, §5, §6, §7
substance,measurement,setting,value
2-ethoxy-3-(4-(2-(2-methyl-5-(4-(methylthio)phenyl)-1H-pyrrol-1-yl)ethoxy)phenyl)propanoate [Saroglitazar magnesium],LOD,[1]; 1 month,0.43 % w/w
same,Related Substance by HPLC: Formula II,[1]; 1 month,0.01 % w/w
same,Related Substance by HPLC: Formula V,[1]; 1 month,0.12 % w/w
same,Related Substance by HPLC: Total impurities,[1]; 1 month,0.12 % w/w
same,LOD,[1]; 2 month,0.64 % w/w
same,Related Substance by HPLC: Formula II,[1]; 2 month,0.01 % w/w
same,Related Substance by HPLC: Formula V,[1]; 2 month,0.12 % w/w
same,Related Substance by HPLC: Total impurities,[1]; 2 month,0.12 % w/w
same,LOD,[1]; 3 months,0.27 % w/w
same,Related Substance by HPLC: Formula II,[1]; 3 months,0.01 % w/w
same,Related Substance by HPLC: Formula V,[1]; 3 months,0.12 % w/w
same,Related Substance by HPLC: Total impurities,[1]; 3 months,0.12 % w/w
same,LOD,[1]; 6 months,0.35 % w/w
same,Related Substance by HPLC: Formula V,[1]; 6 months,0.12 % w/w
same,Related Substance by HPLC: Total impurities,[1]; 6 months,0.12 % w/w
same,LOD,[1]; Initial,0.51 % w/w
same,Related Substance by HPLC: Formula II,[1]; Initial,0.01 % w/w
same,Related Substance by HPLC: Formula V,[1]; Initial,0.11 % w/w
same,Related Substance by HPLC: Total impurities,[1]; Initial,0.18 % w/w
same,LOD,[2]; 1 month,0.48 % w/w
same,Related Substance by HPLC: Formula II,[2]; 1 month,0.01 % w/w
same,Related Substance by HPLC: Formula V,[2]; 1 month,0.12 % w/w
same,Related Substance by HPLC: Total impurities,[2]; 1 month,0.12 % w/w
same,LOD,[2]; 2 month,0.44 % w/w
same,Related Substance by HPLC: Formula II,[2]; 2 month,0.01 % w/w
same,Related Substance by HPLC: Formula V,[2]; 2 month,0.12 % w/w
same,Related Substance by HPLC: Total impurities,[2]; 2 month,0.12 % w/w
same,LOD,[2]; 3 months,0.30 % w/w
same,Related Substance by HPLC: Formula II,[2]; 3 months,0.01 % w/w
same,Related Substance by HPLC: Formula V,[2]; 3 months,0.11 % w/w
same,Related Substance by HPLC: Total impurities,[2]; 3 months,0.12 % w/w
same,LOD,[2]; 6 months,0.24 % w/w
same,Related Substance by HPLC: Formula V,[2]; 6 months,0.12 % w/w
same,Related Substance by HPLC: Total impurities,[2]; 6 months,0.12 % w/w
same,LOD,[2]; Initial,0.51 % w/w
same,Related Substance by HPLC: Formula II,[2]; Initial,0.01 % w/w
same,Related Substance by HPLC: Formula V,[2]; Initial,0.11 % w/w
same,Related Substance by HPLC: Total impurities,[2]; Initial,0.18 % w/w
